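Interpolation was linear, between the two tested concentrations surrounding the appropriate level; five concentrations were tested over 48 hours in 96-well plates. Here, GI50 denotes the concentration required for 50% inhibition of growth.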 Activity calls are given as the source filed them. No stated cut-off is given here; in the data, active = GI50 up to about 1.1 µM and inactive = higher.
Tests used:
Assay in all cases: DTP human tumour cell line panel, 48 h
[1] = test system: U-251
[2] = test system: NCI-H23
[3] = test system: PC-3
[4] = test system: SK-MEL-2
[5] = test system: NCI-H226
[6] = test system: HCT-15
[7] = test system: HL-60
[8] = test system: ACHN
[9] = test system: UACC-62
[10] = test system: EKVX
[11] = test system: HOP-92
[12] = test system: RPMI-8226
[13] = test system: SF-295
[14] = test system: RXF 393
[15] = test system: MDA-MB-435
[16] = test system: SN12C
[17] = test system: HT-29
[18] = test system: NCI-H460
[19] = test system: KM12
[20] = test system: SK-OV-3

SMILES | GI50 [1] | GI50 [2] | GI50 [3] | GI50 [4] | GI50 [5] | GI50 [6] [µM] | GI50 [7] | GI50 [8] | GI50 [9] | GI50 [10] | GI50 [11] | GI50 [12] | GI50 [13] | GI50 [14] | GI50 [15] | GI50 [16] | GI50 [17] | GI50 [18] | GI50 [19] | GI50 [20]
CCOP(=O)(OCC)C(c1ccc(F)cc1)N(C(=O)NC(F)(F)F)c1cccc(C(F)(F)F)c1 (stereo not given) | > 100 µM (inactive) | > 100 µM (inactive) | > 100 µM (inactive) | > 100 µM (inactive) | > 100 µM (inactive) | > 100 | 43.9 µM (inactive) | > 100 µM (inactive) | 72.8 µM (inactive) | > 100 µM (inactive) | 33.2 µM (inactive) | 63 µM (inactive) | > 100 µM (inactive) | 52.8 µM (inactive) | > 100 µM (inactive) | > 100 µM (inactive) | 86.9 µM (inactive) | 91.4 µM (inactive) | > 100 µM (inactive) | > 100 µM (inactive)
O=c1c2sc(=S)n(-c3ccc(F)cc3)c2ncn1/N=C/c1ccc(F)cc1F | 23.4 µM (inactive) | 33.4 µM (inactive) | 31.6 µM (inactive) | 25.4 µM (inactive) | 24.4 µM (inactive) | 88.9 | 22.8 µM (inactive) | 27.5 µM (inactive) | 27.7 µM (inactive) | 16.6 µM (inactive) | 11 µM (inactive) | 52.2 µM (inactive) | 21.1 µM (inactive) | 15.8 µM (inactive) | 83.9 µM (inactive) | 31.3 µM (inactive) | > 100 µM (inactive) | 39.2 µM (inactive) | 79.8 µM (inactive) | 25.4 µM (inactive)
CC(CSC(=N)N)C(N)=O (stereo not given) | > 100 µM (inactive) | > 100 µM (inactive) | > 100 µM (inactive) | > 100 µM (inactive) | > 100 µM (inactive) | > 100 | > 100 µM (inactive) | > 100 µM (inactive) | > 100 µM (inactive) | > 100 µM (inactive) | > 100 µM (inactive) | > 100 µM (inactive) | > 100 µM (inactive) | > 100 µM (inactive) | > 100 µM (inactive) | > 100 µM (inactive) | > 100 µM (inactive) | > 100 µM (inactive) | > 100 µM (inactive) | > 100 µM (inactive)

— ChEMBL document CHEMBL1201862, “PubChem BioAssay data set” (2004)
